Reference: patent US20230010886A1 (SUZHOU PUHE BIOPHARMA CO., LTD., priority 2019, published 2023)

What follows are compounds tested against T1, Full length SHP2 enzyme (Homo sapiens, UniProt Q06124) (assay: SHP2 phosphatase assay). Conditions: 1 μM IRS-1 peptide, DiFMUP substrate.
T1 construct: Full length SHP2 enzyme (diluted to 0.1 nM in reaction buffer)
T1 sequence (Q06124 1-593): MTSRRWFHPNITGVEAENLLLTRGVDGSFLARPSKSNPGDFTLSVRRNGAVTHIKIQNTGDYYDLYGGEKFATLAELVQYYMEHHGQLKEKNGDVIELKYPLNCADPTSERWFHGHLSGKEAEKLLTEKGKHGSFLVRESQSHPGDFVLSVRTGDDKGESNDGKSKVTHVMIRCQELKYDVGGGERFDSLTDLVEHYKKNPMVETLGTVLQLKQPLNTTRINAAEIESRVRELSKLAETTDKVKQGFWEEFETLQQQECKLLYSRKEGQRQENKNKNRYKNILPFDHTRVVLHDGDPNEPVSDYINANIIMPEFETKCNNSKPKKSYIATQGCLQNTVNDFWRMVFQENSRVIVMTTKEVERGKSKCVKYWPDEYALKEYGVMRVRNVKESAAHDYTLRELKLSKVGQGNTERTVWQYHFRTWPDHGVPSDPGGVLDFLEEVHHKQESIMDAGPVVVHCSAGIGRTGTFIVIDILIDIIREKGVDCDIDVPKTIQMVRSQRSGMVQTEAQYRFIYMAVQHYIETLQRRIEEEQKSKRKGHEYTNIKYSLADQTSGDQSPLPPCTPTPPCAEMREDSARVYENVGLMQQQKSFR
Type: biochemical
Method: IC50 values were determined at room temperature in 384-well black polystyrene plate, using a final reaction volume of 15 μL and the following assay buffer conditions: 60 mM Hepes (pH=7.2), 75 mM NaCl, 75 mM KCl, and 1 mM EDTA, 0.05% P-20, 5 mM dithiothreitol (DTT). Full length SHP2 enzyme (diluted to 0.1 nM in reaction buffer) were co-incubated with 1 μM IRS-1 peptide and 0.01 nM to 10 μM compounds of the disclosure for 60 min. The surrogate substrate DiFMUP (5 μL, 100 μM) was added, and incubated at rt for 60 min. The reaction was then quenched by the addition of 5 μL of a 40 μM solution of bpV(Phen). The fluorescence signal was monitored using a microplate reader (Envision, Perkin-Elmer) using excitation and emission wavelengths of 360 nm and 450 nm, respectively. The inhibitor dose-response curves were analyzed using normalized IC50 regression curve fitting with control-based normalization.

SMILES	IC50 [nM]
CC1(CN)CCN(c2ncc(Sc3cccc(NC(=O)c4c(O)nc5cnccn5c4=O)c3Cl)[nH]c2=O)CC1 [Example 30, N-(3-((5-(4-(aminomethyl)-4-methylpiperidin-1-yl)-6-oxo-1,6-dihydropyrazin-2-yl)thio)-2-chlorophenyl)-2-hydroxy-4-oxo-4H-pyrazino[1,2-a]pyrimidine-3-carboxamide]	≤ 50
NC1C2CC2CC12CCN(c1ncc(Sc3cccc(Cl)c3Cl)[nH]c1=O)CC2 (stereo not shown) [Example 13, 3-(2-aminospiro[bicyclo[3.1.0]hexane-3,4′-piperidin]-1′-yl)-6-((2,3-dichlorophenyl)thio)pyrazin-2 (1H)-one]	≤ 50
CC1(CN)CCN(c2nc3[nH]nc(Nc4cccc(Cl)c4Cl)c3c(=O)[nH]2)CC1 [Example 34, 6-(4-(aminomethyl)-4-methylpiperidin-1-yl)-3-((2,3-dichlorophenyl)amino)-1,5-dihydro-4H-pyrazolo[3,4-d]pyrimidin-4-one]	≤ 50
NC1c2nc(Cl)sc2CC12CCN(c1ncc(Sc3ccnc(Cl)c3Cl)[nH]c1=O)CC2 (stereo not shown) [Example 116, 3-(4-amino-2-chloro-4,6-dihydrospiro[cyclopenta[d]thiazole-5,4′-piperidin]-1′-yl)-6-((2,3-dichloropyridin-4-yl)thio)pyrazin-2(1H)-one]	≤ 50
C[C@@H]1OCC2(CCN(c3ncc(Sc4ccnc(N)c4Cl)nc3O)CC2)[C@@H]1N [Example 77, 6-((2-amino-3-chloropyridin-4-yl)thio)-3-((3S,4S)-4-amino-3-methyl-2-oxa-8-azaspiro[4.5]decan-8-yl)pyrazin-2(1H)-one]	≤ 50
Cn1c(N2CCC(C)(CN)C2)nc(N)c(Sc2cccc(Cl)c2Cl)c1=O (stereo not shown) [Example 52, 6-amino-2-(3-(aminomethyl)-3-methylpyrrolidin-1-yl)-5-((2,3-dichlorophenyl)thio)-3-methylpyrimidin-4(3H)-one]	≤ 50
CC1(CN)CCN(c2nc3[nH]nc(Oc4cccc(Cl)c4Cl)c3c(=O)[nH]2)CC1 [Example 35, 6-(4-(aminomethyl)-4-methylpiperidin-1-yl)-3-(2,3-dichlorophenoxy)-1,5-dihydro-4H-pyrazolo[3,4-d]pyrimidin-4-one]	≤ 50
N[C@@H]1COCC12CCN(c1ncc(Sc3ccnc(Cl)c3Cl)[nH]c1=O)CC2 [Example 88, (S)-3-(4-amino-2-oxa-8-azaspiro[4.5]decan-8-yl)-6-((2,3-dichloropyridin-4-yl)thio)pyrazin-2(1H)-one]	≤ 50
COc1nccc(Sc2cnc(N3CCC4(CC3)CO[C@@H](C)[C@H]4N)c(=O)[nH]2)c1Cl [Example 80, 3-((3S,4S)-4-amino-3-methyl-2-oxa-8-azaspiro[4.5]decan-8-yl)-6-((3-chloro-2-methoxypyridin-4-yl)thio)pyrazin-2(1H)-one]	≤ 50
CN1C(=O)C(C(=O)Nc2cccc(Sc3cnc(N4CCC(C)(CN)CC4)c(=O)[nH]3)c2Cl)=C(O)C1(C)C [Example 28, N-(3-((5-(4-(aminomethyl)-4-methylpiperidin-1-yl)-6-oxo-1,6-dihydropyrazin-2-yl)thio)-2-chlorophenyl)-4-hydroxy-1,5,5-trimethyl-2-oxo-2,5-dihydro-1H-pyrrole-3-carboxamide]	≤ 50
C[C@@H]1OCC2(CCN(c3ncc(Sc4cc[nH]c(=O)c4Cl)[nH]c3=O)CC2)[C@@H]1N [Example 107, 3-((3S,4S)-4-amino-3-methyl-2-oxa-8-azaspiro[4.5]decan-8-yl)-6-((3-chloro-2-oxo-1,2-dihydro-pyridin-4-yl)thio)pyrazin-2(1H)-one]	≤ 50
N[C@@H]1c2ccccc2CC12CCN(c1ncc(Sc3cccc(Cl)c3Cl)[nH]c1=O)CC2 [Example 108]	≤ 50
NC1CCCC(n2ccc(-c3cccc(Cl)c3Cl)cc2=O)C1 (stereo not shown) [Example 74, 1-(3-aminocyclohexyl)-4-(2,3-dichlorophenyl)pyridin-2(1H)-one]	≤ 50
CC1(CN)CCN(c2ncc(Sc3cccc(NC(=O)c4c(O)nc5[nH]ccn5c4=O)c3Cl)[nH]c2=O)CC1 [Example 32, N-(3-((5-(4-(aminomethyl)-4-methylpiperidin-1-yl)-6-oxo-1,6-dihydropyrazin-2-yl)thio)-2-chlorophenyl)-7-hydroxy-5-oxo-1,5-dihydroimidazo[1,2-a]pyrimidine-6-carboxamide]	≤ 50
CC1(CN)CCN(c2ncc(Sc3cccc(NC(=O)c4c(O)nc5n(c4=O)CCCC5)c3Cl)[nH]c2=O)CC1 [Example 33, N-(3-((5-(4-(aminomethyl)-4-methylpiperidin-1-yl)-6-oxo-1,6-dihydropyrazin-2-yl)thio)-2-chlorophenyl)-2-hydroxy-4-oxo-6,7,8,9-tetrahydro-4H-pyrido [1,2-a]pyrimidine-3-carboxamide]	≤ 50
NC1C2CN(c3ncc(Sc4cccc(Cl)c4Cl)[nH]c3=O)CC12 (stereo not shown) [Example 86, 3-(6-amino-3-azabicyclo[3.1.0]hexan-3-yl)-6-((2,3-dichlorophenyl)thio)pyrazin-2(1H)-one]	≤ 50
N[C@@H]1c2ccccc2OC12CCN(c1ncc(Sc3cccc(Cl)c3Cl)[nH]c1=O)CC2 [Example 87, (R)-3-(3-amino-3H-spiro[benzofuran-2,4′-piperidin]-1′-yl)-6-((2,3-dichlorophenyl)thio)pyrazin-2 (1H)-one]	≤ 50

Results, then the compound that gave them:

IC50 [nM]	SMILES
≤ 50	C[C@@H]1OCC2(CCN(c3ncc(Sc4ccncc4Cl)[nH]c3=O)CC2)[C@@H]1N [Example 128, 3-((3S,4S)-4-amino-3-methyl-2-oxa-8-azaspiro[4.5]decan-8-yl)-6-((3-chloropyridin-4-yl)thio) pyrazin-2(1H)-one]
≤ 50	N[C@H]1CCCC12CCN(c1ncc(Sc3ccnc(Cl)c3Cl)[nH]c1=O)CC2 [Example 135, (S)-3-(1-amino-8-azaspiro[4.5]decan-8-yl)-6-((2,3-dichloropyridin-4-yl)thio)pyrazin-2(1H)-one]
≤ 50	C[C@@H]1OCC2(CCN(c3ncc(Sc4cccc(N)c4F)[nH]c3=O)CC2)[C@@H]1N [Example 126, 6-((3-amino-2-fluorophenyl)thio)-3-((3S,4S)-4-amino-3-methyl-2-oxa-8-azaspiro[4.5]decan-8-yl)pyrazin-2(1H)-one]
≤ 50	Nc1nccc(Sc2cnc(N3CCC4(CC3)Oc3ccccc3[C@H]4N)c(=O)[nH]2)c1Cl [Example 124, (R)-6-((2-amino-3-chloropyridin-4-yl)thio)-3-(3-amino-3H-spiro[benzofuran-2,4′-piperidin]-1′-yl)pyrazin-2(1H)-one]
≤ 50	N[C@@H]1c2cccnc2CC12CCN(c1ncc(Sc3cccc(Cl)c3Cl)[nH]c1=O)CC2 [Example 134, (S)-3-(5-amino-5,7-dihydrospiro[cyclopenta[b]pyridine-6,4′-piperidin]-1′-yl)-6-((2,3-dichlorophenyl)thio)pyrazin-2(1H)-one]
≤ 50	[2H][C@@]1(N)[C@H](C)OCC12CCN(c1ncc(Sc3cccc(Cl)c3Cl)[nH]c1=O)CC2 [Example 136]
≤ 50	Nc1nccc(Sc2cnc(N3CCC4(CC3)Cc3scnc3C4N)c(=O)[nH]2)c1Cl (stereo not shown) [Example 130, 6-((2-amino-3-chloropyridin-4-yl)thio)-3-(4-amino-4,6-dihydrospiro[cyclopenta[d]thiazole-5,4′-piperidin]-1′-yl)pyrazin-2(1H)-one]
≤ 50	N[C@@H]1c2ccccc2OC12CCN(c1ncc(Sc3ccnc(Cl)c3Cl)[nH]c1=O)CC2 [Example 123, (R)-3-(3-amino-3H-spiro[benzofuran-2,4′-piperidin]-1′-yl)-6-((2,3-dichloropyridin-4-yl)thio)pyrazin-2(1H)-one]
≤ 50	Nc1nccc(Sc2cnc(N3CCC4(CC3)Cc3sc(Cl)nc3C4N)c(=O)[nH]2)c1Cl (stereo not shown) [Example 117, 3-(4-amino-2-chloro-4,6-dihydrospiro[cyclopenta[d]thiazole-5,4′-piperidin]-1′-yl)-6-((2-amino-3-chloropyridin-4-yl)thio)pyrazin-2(1H)-one]
≤ 50	N[C@@H]1c2ccccc2NC12CCN(c1ncc(Sc3cccc(Cl)c3Cl)[nH]c1=O)CC2 [Example 132, (R)-3-(3-aminospiro[indoline-2,4′-piperidin]-1′-yl)-6-((2,3-dichlorophenyl)thio)pyrazin-2 (1H)-one]
≤ 1000	C[C@@H]1OCC2(CCN(c3ncc(Sc4ccnc(N)c4F)[nH]c3=O)CC2)[C@@H]1N [Example 127, 6-((2-amino-3-fluoropyridin-4-yl)thio)-3-((3S,4S)-4-amino-3-methyl-2-oxa-8-azaspiro[4.5]decan-8-yl)pyrazin-2(1H)-one]
